Experimental data as given in US20260137707A1, “METHODS OF MODULATING ATXN2 EXPRESSION” (University of Utah Research Foundation, priority 2022, published 2026).
Read-outs that look alike come from different tables or passages of the source.

Legend:
ATXN2-luc [1] = test: qHTS (NCGC LOPAC pilot and primary), Steady-Glo luciferase, 1536-well; type: cell-based
Experimental: 4 μl of S2 cell suspension in phenol-red free DMEM was dispensed into wells of 1536-well assay plates. […] Next, SteadyGlo luciferase substrate detection reagent (3 μl) was added to each well and incubated for an additional 5 minutes at room temperature. Luminescence was then measured on the ViewLux imager equipped with clear filters using a 2 sec exposure. All screening operations were performed on a fully integrated robotic system (Kalypsys) containing one RX-130 and two RX-90 anthropomorphic robotic arms (Staubli). Vehicle-only plates, with DMSO being pin-transferred to columns 5-48, were inserted uniformly at the beginning and the end of each library in order to monitor and record any shifts in assay performance.
Screening to optimize the assay in 1536-well format was conducted at the NCGC laboratory using S2 cells. […] Cytotoxicity was determined using a multiplexed viability assay (CellTiter-Fluor). […] Cells were plated 1000 cells/well in 1536 well plates. Plates were assayed for ATXN2-luc expression (Steady-Glo) and compound effect on cell abundance (CellTiter-Fluor), with increases shown for each well indicated by red, and decreases indicated by blue.
A fluorescence-based viability assay using GF-AFC substrate was used to determine compound effect on cell viability and Steady-Glo was used to measure luciferase in a multiplexed assay.

ATXN2-luc [2] = settings: average ATXN2-luc response of H2 and S1 cells
ATXN2-luc [3] = settings: H2 cells
CMV-luc = test: Secondary assays, Bright-Glo luciferase in SC cells; type: cell-based; settings: minimum CMV-luc luciferase in SC cells over 12 doses
Experimental: (§1) Compounds were plated at 2× concentrations in 25 μl in 384 well plates with each compound dose plated in triplicate. An equal volume of S2, H2, or SC cells (24,000 cells/well) suspended in phenol-red free Dulbecco's Modified Eagle Medium (DMEM) with 10% fetal bovine serum and 1× penicillin/streptomycin were added. Cells were grown 24 hrs then assayed first by using the CellTiter-Fluor reagent (20 μl) followed by the addition of Bright-Glo ([…]) luciferase assay, using a multimode plate reader (Beckman DT880). Values were reported as the mean±standard deviation (SD) with n=3. IC50s were determined by the Hill coefficient method using an online tool (https://www.aatbio.com/tools/ic50-calculator).
(§2) For CMV-luc and viability charts, the fitted lines are second-order polynomials. Means and SD are shown.

ATXN2-luc [4] = test: Secondary assays, Bright-Glo luciferase in H2 and S2 cells; type: cell-based; settings: for min ATXN2-luc: minimum ATXN2-luc luciferase over 12 doses, H2 and S2 cells
Experimental: as §1
(§3) These 46 compounds were retested at 12 doses and a zero-compound dose, in multiplexed assays in 96-well plates using CellTiter-Fluor to determine cell viability, then Bright-Glo to determine luciferase expression. The values for H2 and S2 were used as replicates to calculate IC50s and to assess cell viability.
as §2

H2, S2, and SC cells = test: in vitro
Experimental: as §1, §3, §2

endogenous ATXN2 = test: Endogenous ATXN2 expression in HEK-293 cells by qPCR; type: cell-based
Excerpt: Total RNA was extracted from cells cultured in 24-well plates using the RNeasy Mini-Kit (Qiagen Inc.) according to the manufacturer's protocol. DNAse I treated RNAs were used to synthesize cDNA using ProtoScript cDNA synthesis kit (New England Biolabs Inc.). Sets of primers used for qPCR included ATXN2 primers ATXN2-F (5′-[sequence]-3′) & ATXN2-R (5′-[sequence]-3′), ATP1A2 primers ATP1A2-F (5′-[sequence]-3′) & ATP1A2-R (5′-[sequence]-3′), GAPDH primers GAPDH-F133 (5′-[sequence]-3′) & GAPDH-R333 (5′-[sequence]-3′), and mouse Actb primers Actb-F (5′-[sequence]-3′) & Actb-R (5′-[sequence]-3′). qPCR was performed in the Bio-Rad CFX96 instrument (Bio-Rad Inc.) with the Power SYBR Green PCR master mix (Applied Biosystems Inc.). PCR amplification was carried out for 45 cycles. Cycling parameters were denaturation (95° C. for 10 s), annealing (60° C. for 10 s), extension (72° C. for 40 s).
(§4) Probabilities are from one-way ANOVA and post-hoc Bonferroni corrected t-tests: ns, not significant; **, P<0.01.

H2 cells = test: Orthogonal paired MTT viability in H2 cells; type: cell-based; settings: at 1 nM
Experimental: ATXN2 expression associates with the expression of the proscillaridin A target ATP1A2. […] The cells were also evaluated for viability by MTT assay. Values shown are means and standard deviations. HEK-293 cells were then treated with increasing doses of proscillaridin A for either 24 and 48 hours, showing >50% reduction of endogenous ATXN2 when cells were treated with 1 nM proscillaridin A at 48 hours.

ATXN2-luc [5] = test: Orthogonal ATXN2-luc luciferase assay in H2 cells; type: cell-based
Excerpt: as §4

[6] = S2 cells, LOPAC1280 library, 24 hrs
[7] = Table 1, 24 hrs, single 10 μM dose, Z-score of luciferase
[8] = ATXN2-luc, Bright-Glo, H2 and S2 values used as replicates, 12 doses, 96-well plates, read-out: Mean IC50
[9] = minimum cell viability, CellTiter-Fluor, over 12 doses

| Compound | min SC luc (CMV-luc) [%] | IC50 (ATXN2-luc [4]; [8]) [nM] | min ATXN2-luc (ATXN2-luc [4]) [%] | min viability (H2, S2, and SC cells) [%] | min viability (H2, S2, and SC cells; [9]) [%] | further results |
| --- | --- | --- | --- | --- | --- | --- |
| Protriptyline hydrochloride | – | – | – | – | – | Curve Class (ATXN2-luc [1]): −2.2 |
| Naltrindole hydrochloride | – | – | – | – | – | Curve Class (ATXN2-luc [1]; [6]): −2.2 |
| C[C@H]1O[C@@H](O[C@H]2CC[C@]3(C=O)[C@H]4CC[C@]5(C)[C@@H](C6=CC(=O)OC6)CC[C@]5(O)[C@@H]4CC[C@]3(O)C2)C[C@H](O)[C@@H]1O [Helveticoside] | – | – | – | – | – | Curve Class (ATXN2-luc [1]; [6]): −1.1; Luc at 1 μm (ATXN2-luc [2]): 118; Luc at 10 μm (ATXN2-luc [2]): 41; SD from Mean (ATXN2-luc [3]; [7]): −2.733 SD; SD from Mean (ATXN2-luc [3]; Table 5S, pilot screen, 10 μM): −2.733 SD |
| CN(c1ccccc1CNc1nc(Nc2ccc3c(c2)CC(=O)N3)ncc1C(F)(F)F)S(C)(=O)=O [PF-431396] | 98.3 | 2320 | 15.51 | 64.59 | – | – |
| Nc1ncnc2c1c(-c1cnc3[nH]ccc3c1)nn2C1CCCC1 [PP121] | 78.1 | 4160 | 27.48 | – | 50.39 | – |
| O=C(Nc1cccc(Nc2ncc(Br)c(NCCc3cnc[nH]3)n2)c1)N1CCCC1 [BX-912] | 100.4 | 8890 | 54.94 | – | 84.4 | – |
| O=c1[nH]c2ccc(Cl)cc2c(N[C@@H]2CN3CCC2CC3)c1-c1nc2ccccc2[nH]1 [CHIR-124] | 69.4 | 219 | 17.98 | – | 75.06 | – |
| Cc1cccc(Nc2nc(N[C@@H]3CCCC[C@@H]3N)ncc2C(N)=O)c1 [PRT-060318] | 86.82 | 25400 | 64.25 | 94.62 | – | – |
| CNC(=O)c1cc(Oc2ccc(NC(=O)Nc3cc(C(C)(C)C)nn3-c3ccc4ncccc4c3)c(F)c2)ccn1 [Rebastinib (DCC-2036)] | 60.58 | 3730 | 27.07 | 56.58 | – | – |
| S=C(NCCCN1CCOCC1)N1CCN(c2nc(-c3ccccc3)cs2)CC1 [MLS000706289] | 79.3 | 6850 | 61.65 | 89.11 | – | – |
| Cc1ccc(-c2ncn(-c3ccc(Nc4nccc(-c5cccc(N6CCOCC6)c5)n4)cc3)n2)cn1 [SR-3306] | 82.9 | 1300 | 15.65 | – | 65.37 | – |
| C[C@@H]1O[C@@H](O[C@@H]2C=C3CC[C@@H]4[C@H](CC[C@]5(C)[C@@H](c6ccc(=O)oc6)CC[C@]45O)[C@@]3(C)CC2)[C@H](O)[C@H](O)[C@H]1O [Proscillaridin A] | 122 | – | 7.986 | – | 74.18 | reduction of endogenous ATXN2 (endogenous ATXN2; 1 nM, 48 hours): > 50%; IC50 (endogenous ATXN2; 48 hrs): 677 nM; cellular viability (MTT method) (H2 cells): minimal effect on cellular viability; IC50 (ATXN2-luc [4]; H2 and S2 used as replicates, 24 hrs, read-out: IC50 (ATXN2-luc, secondary assays)): 17 nM; IC50 (ATXN2-luc [5]; H2 cells treated for 48 hrs, read-out: IC50 (ATXN2-luc expression)): 0.052 nM; ATXN2-luc reduction (ATXN2-luc [5]; H2 cells, at 1 nM): 80%; Luc at 1 μm (ATXN2-luc [2]): 54; Luc at 10 μm (ATXN2-luc [2]): 22; SD from Mean (ATXN2-luc [3]; [7]): −7.684 SD; SD from Mean (ATXN2-luc [3]; Table 5S, pilot screen, 10 μM): −7.684 SD |
| CCc1c(O)cc(O)c(C(=O)c2ccc(OCCN3CCOCC3)c(OC)c2)c1CC(=O)N(CCOC)CCOC [KW-2478] | 105.9 | 587 | 23.94 | – | 97.67 | – |
| C[C@H]1CCC/C=C/[C@@H]2C[C@H](O)C[C@H]2[C@H](O)/C=C/C(=O)O1 [Brefeldin A] | 84.38 | 2890 | 44.72 | – | 72.98 | – |
| Cn1cc(-c2cnn3c(N)c(Br)c([C@H]4CCCNC4)nc23)cn1 [Compound 891494-64-7] | 91.51 | 388 | 25.49 | 87.04 | – | – |
